Species: Rattus norvegicus
Test: DrugMatrix - Regimen: Daily Repeat
Type: toxicity, organism-based, Sprague-Dawley
Design: regimen Daily Repeat, gender Male, age 6-8 weeks
Conditions: in vivo, sc, route subcutaneous, […]; for ABSOLUTE BASOPHIL / ABSOLUTE EOSINOPHIL / ABSOLUTE LYMPHOCYTE / ABSOLUTE MONOCYTE / ABSOLUTE SEGMENTED NEUTROPHIL / BASOPHIL / EOSINOPHIL / ERYTHROCYTE COUNT / HEMATOCRIT / HEMOGLOBIN / LEUKOCYTE COUNT / LYMPHOCYTE / MEAN CORPUSCULAR HEMOGLOBIN / MEAN CORPUSCULAR HEMOGLOBIN CONCENTRATION / MEAN CORPUSCULAR VOLUME / MONOCYTE / NEUTROPHIL / NUCLEATED RED BLOOD CELLS / PLATELET COUNT: tissue Blood; for ALANINE AMINOTRANSFERASE / ALBUMIN / ALKALINE PHOSPHATASE / ASPARTATE AMINOTRANSFERASE / BLOOD UREA NITROGEN / CARBON DIOXIDE / CHLORIDE / CHOLESTEROL / CREATINE PHOSPHOKINASE / CREATININE / GLUCOSE / LACTATE DEHYDROGENASE / LIPASE / PHOSPHORUS / POTASSIUM / SODIUM / TOTAL BILIRUBIN / TOTAL PROTEIN / URIC ACID: tissue Plasma
[1] = 50 mg/kg, 120 h, dose level Low, time 5 day
[2] = 201 mg/kg, 72 h, dose level High, time 3 day
[3] = 201 mg/kg, 120 h, dose level High, time 5 day

CCCCOC(=O)c1ccc(N)cc1 [BUTAMBEN]
ABSOLUTE BASOPHIL [1]: 0 CELLS/uL
ABSOLUTE EOSINOPHIL [1]: 200.67 CELLS/uL
ABSOLUTE LYMPHOCYTE [1]: 13363.67 CELLS/uL
ABSOLUTE MONOCYTE [1]: 123.33 CELLS/uL
ABSOLUTE SEGMENTED NEUTROPHIL [1]: 2512.33 CELLS/uL
BASOPHIL [1]: 0%
EOSINOPHIL [1]: 1.33%
ERYTHROCYTE COUNT [1]: 5.82 x10E6/uL
HEMATOCRIT [1]: 36.47%
HEMOGLOBIN [1]: 13.23 G/DL
LEUKOCYTE COUNT [1]: 16.2 x10E3/uL
LYMPHOCYTE [1]: 82.33%
MEAN CORPUSCULAR HEMOGLOBIN [1]: 22.8 pg
MEAN CORPUSCULAR HEMOGLOBIN CONCENTRATION [1]: 36.3 G/DL
MEAN CORPUSCULAR VOLUME [1]: 62.77 fL
MONOCYTE [1]: 0.67%
NEUTROPHIL [1]: 15.67%
NUCLEATED RED BLOOD CELLS [1]: 0 /100WBC
PLATELET COUNT [1]: 1424.33 x10E3/uL
ALANINE AMINOTRANSFERASE [1]: 47.67 u/L
ALBUMIN [1]: 4.3 G/DL
ALKALINE PHOSPHATASE [1]: 349 u/L
ASPARTATE AMINOTRANSFERASE [1]: 78.67 u/L
BLOOD UREA NITROGEN [1]: 19.67 mg/dL
CARBON DIOXIDE [1]: 23.67 mmol/L
CHLORIDE [1]: 105.67 MEQ/L
CHOLESTEROL [1]: 76.67 mg/dL
CREATINE PHOSPHOKINASE [1]: 340 u/L
CREATININE [1]: 0.21 mg/dL
GLUCOSE [1]: 179.67 mg/dL
LACTATE DEHYDROGENASE [1]: 100.67 u/L
LIPASE [1]: 8.33 u/L
PHOSPHORUS [1]: 12.87 mg/dL
POTASSIUM [1]: 6.56 MEQ/L
SODIUM [1]: 145.27 MEQ/L
TOTAL BILIRUBIN [1]: 0.23 mg/dL
TOTAL PROTEIN [1]: 6.03 G/DL
URIC ACID [1]: 1.9 mg/dL
ABSOLUTE BASOPHIL [2]: 0 CELLS/uL
ABSOLUTE EOSINOPHIL [2]: 70 CELLS/uL
ABSOLUTE LYMPHOCYTE [2]: 16456 CELLS/uL
ABSOLUTE MONOCYTE [2]: 124.67 CELLS/uL
ABSOLUTE SEGMENTED NEUTROPHIL [2]: 2816 CELLS/uL
BASOPHIL [2]: 0%
EOSINOPHIL [2]: 0.33%
ERYTHROCYTE COUNT [2]: 5.58 x10E6/uL
HEMATOCRIT [2]: 36%
HEMOGLOBIN [2]: 13.23 G/DL
LEUKOCYTE COUNT [2]: 19.47 x10E3/uL
LYMPHOCYTE [2]: 84.67%
MEAN CORPUSCULAR HEMOGLOBIN [2]: 23.77 pg
MEAN CORPUSCULAR HEMOGLOBIN CONCENTRATION [2]: 36.8 G/DL
MEAN CORPUSCULAR VOLUME [2]: 64.57 fL
MONOCYTE [2]: 0.67%
NEUTROPHIL [2]: 14.33%
NUCLEATED RED BLOOD CELLS [2]: 0.67 /100WBC
PLATELET COUNT [2]: 1165.33 x10E3/uL
ALANINE AMINOTRANSFERASE [2]: 57 u/L
ALBUMIN [2]: 4.07 G/DL
ALKALINE PHOSPHATASE [2]: 412 u/L
ASPARTATE AMINOTRANSFERASE [2]: 89.67 u/L
BLOOD UREA NITROGEN [2]: 16.33 mg/dL
CARBON DIOXIDE [2]: 27.67 mmol/L
CHLORIDE [2]: 103 MEQ/L
CHOLESTEROL [2]: 70.67 mg/dL
CREATINE PHOSPHOKINASE [2]: 345 u/L
CREATININE [2]: 0.18 mg/dL
GLUCOSE [2]: 160.33 mg/dL
LACTATE DEHYDROGENASE [2]: 218 u/L
LIPASE [2]: 8.33 u/L
PHOSPHORUS [2]: 12.83 mg/dL
POTASSIUM [2]: 6.76 MEQ/L
SODIUM [2]: 143.8 MEQ/L
TOTAL BILIRUBIN [2]: 0.23 mg/dL
TOTAL PROTEIN [2]: 5.8 G/DL
URIC ACID [2]: 1.53 mg/dL
ABSOLUTE BASOPHIL [3]: 0 CELLS/uL
ABSOLUTE EOSINOPHIL [3]: 338.33 CELLS/uL
ABSOLUTE LYMPHOCYTE [3]: 17074 CELLS/uL
ABSOLUTE MONOCYTE [3]: 209.67 CELLS/uL
ABSOLUTE SEGMENTED NEUTROPHIL [3]: 3344.67 CELLS/uL
BASOPHIL [3]: 0%
EOSINOPHIL [3]: 1.67%
ERYTHROCYTE COUNT [3]: 5.22 x10E6/uL
HEMATOCRIT [3]: 33.53%
HEMOGLOBIN [3]: 12.47 G/DL
LEUKOCYTE COUNT [3]: 20.97 x10E3/uL
LYMPHOCYTE [3]: 81.33%
MEAN CORPUSCULAR HEMOGLOBIN [3]: 23.9 pg
MEAN CORPUSCULAR HEMOGLOBIN CONCENTRATION [3]: 37.17 G/DL
MEAN CORPUSCULAR VOLUME [3]: 64.37 fL
MONOCYTE [3]: 1%
NEUTROPHIL [3]: 16%
NUCLEATED RED BLOOD CELLS [3]: 0 /100WBC
PLATELET COUNT [3]: 1321.67 x10E3/uL
ALANINE AMINOTRANSFERASE [3]: 47 u/L
ALBUMIN [3]: 4.17 G/DL
ALKALINE PHOSPHATASE [3]: 353 u/L
ASPARTATE AMINOTRANSFERASE [3]: 79.67 u/L
BLOOD UREA NITROGEN [3]: 18 mg/dL
CARBON DIOXIDE [3]: 26.67 mmol/L
CHLORIDE [3]: 104.33 MEQ/L
CHOLESTEROL [3]: 51 mg/dL
CREATINE PHOSPHOKINASE [3]: 415 u/L
CREATININE [3]: 0.21 mg/dL
GLUCOSE [3]: 163 mg/dL
LACTATE DEHYDROGENASE [3]: 103 u/L
LIPASE [3]: 8 u/L
PHOSPHORUS [3]: 12.37 mg/dL
POTASSIUM [3]: 6.72 MEQ/L
SODIUM [3]: 144.47 MEQ/L
TOTAL BILIRUBIN [3]: 0.37 mg/dL
TOTAL PROTEIN [3]: 6.07 G/DL
URIC ACID [3]: 1.93 mg/dL

From ChEMBL document CHEMBL3885881, “DrugMatrix”
